Results taken from the METLIN SMRT retention time set (Domingo-Almenara et al. 2019).

Assay: gradient 5% acetonitrile 3 min, to 50% in 2 min, to 85% in 15 min, held 3 min, 100 µL/min
Conditions: column: Zorbax Extend-C18 2.1 x 50 mm; eluents: water / acetonitrile, 0.1% formic acid
Procedure, shortened: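 In both positive and negative ionization mode, a quadrupole time-of-flight mass spectrometer coupled to HPLC analyzed pure standards run in mixtures of ~100 molecules. The Zorbax Extend-C18 column (2.1 × 50 mm, 1.8 μm) was operated at 100 μL/min with water and acetonitrile, each containing 0.1% formic acid. The dead volume was 40 μL and the dwell volume 900 μL. Retention time came from adduct peaks that were computationally picked and individually inspected by hand.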
Cc1ccsc1C(=O)N1CCc2cc(-c3ccno3)ccc21 showed an RP-LC retention time of 924 s. With Cc1noc(C)c1S(=O)(=O)N1CCCn2nc(-c3cccs3)cc2C1 the RP-LC retention time was 880 s. CCOC(=O)[C@H]1[C@H]2C=C[C@]3(CN(c4ccccc4C)C(=O)[C@@H]13)O2 gave an RP-LC retention time of 717 s. With Cc1ccc(-c2ccc3nn(Cc4nc(-c5ccc(OC(F)(F)F)cc5)no4)c(=O)n3n2)cc1 the RP-LC retention time was 1120 s. CCOC(=O)N1CCN(C(=O)CCNc2c(-c3cccc(F)c3)nc3cnccn23)CC1 showed an RP-LC retention time of 689 s. For Cc1ccc(-n2ccn3c(CCC(=O)NCCc4c[nH]c5ccccc45)nnc3c2=O)cc1C, the RP-LC retention time was 757 s. Work on CCOC(Cn1c(-c2ccc(OC)cc2)nc2ccccc21)OCC yielded an RP-LC retention time of 713 s. Molecule O=C(Cc1cccs1)NC1CCN(C(=O)c2cc(-c3cccs3)[nH]n2)CC1 has an RP-LC retention time of 704 s. Molecule O=S(=O)(c1cccc(C(F)(F)F)c1)N1CCc2nc(-c3ccc(F)cc3)ncc2C1 has an RP-LC retention time of 1170 s. CC(C)n1cc(S(=O)(=O)Nc2ccc(C#N)cc2)c2cccnc21 gave an RP-LC retention time of 833 s. CCn1cc(CCN2CCN(S(=O)(=O)c3ccc(C#N)cc3)CC2)c2cccnc21 showed an RP-LC retention time of 634 s. In the case of Fc1ccccc1-c1noc(-c2nc(Cc3ccccc3)no2)n1, the RP-LC retention time is reported as 1160 s. In the case of O=C1CC(c2nc(-c3ccc(Br)cc3)no2)CN1c1ccccc1 (stereo not drawn), the RP-LC retention time is reported as 1080 s. With COc1ccc(CC(=O)NCC(=O)Nc2nc3ccccc3[nH]2)c(Cl)c1 the RP-LC retention time was 653 s. With CON=C(C(=O)NC1C(=O)N2C(C(=O)O)=C(CSc3nc(C)c(CC(=O)O)s3)CSC12)c1csc(N)n1 (stereo not drawn) the RP-LC retention time was 629 s. Work on Cc1cc(C)c(S(=O)(=O)N2CCC(C(=O)NCc3csc(-c4ccccc4)n3)CC2)c(C)c1 yielded an RP-LC retention time of 1050 s. CCC1CCCCN1Cc1nc(Cn2ccn3nc(-c4ccc(OC)cc4)cc3c2=O)no1 (stereo not drawn) showed an RP-LC retention time of 679 s. For CC(C)CCNC(=O)C1(C)Cn2nc(C(=O)NCC(C)c3ccccc3)cc2C(=O)N1C (stereo not drawn), the RP-LC retention time was 833 s. With COc1nccnc1NC1CCN(C(=O)c2cccn2C)CC1 the RP-LC retention time was 570 s. For CCCc1ccc(S(=O)(=O)N2C[C@@H](F)C[C@H]2C(=O)N2CCc3ccccc3C2)cc1, the RP-LC retention time was 1060 s. With Cc1cc(Br)ccc1NC(=O)Cc1csc(Nc2ccc(Cl)cn2)n1 the RP-LC retention time was 1040 s. In the case of CCC(C)NC(=O)c1ccc2c(c1)CCN2C(C)=O (stereo not drawn), the RP-LC retention time is reported as 668 s. Molecule COc1ccc(NC(=O)c2c(N3CCCC3=O)c3cc(F)ccc3n2C)cc1 has an RP-LC retention time of 922 s. For O=C(NC1CCCCC1)C1CCN(S(=O)(=O)c2cc(C(=O)N3CCCCCC3)cs2)CC1, the RP-LC retention time was 902 s. Work on CCn1nccc1C(=O)N1CCN(c2ncnc3c2CCC3)CC1 yielded an RP-LC retention time of 556 s. For COC(=O)C1=C(C)NC2=C(C(=O)c3ccccc32)C1c1cccs1 (stereo not drawn), the RP-LC retention time was 918 s. With O=C(C1CC1)N1CCc2sc(S(=O)(=O)Nc3ccc(Cl)cc3F)cc2C1 the RP-LC retention time was 887 s. For CC(=O)Nc1nc2ccc(CC(=O)Nc3cccc(Cl)c3)cc2s1, the RP-LC retention time was 790 s. Work on CC1CCc2c(sc3ncnc(SCC(=O)N4CCOCC4)c23)C1 (stereo not drawn) yielded an RP-LC retention time of 860 s. For CCOC(=O)C1CCN(C(=O)C2CCN(c3ccc(N4CCCC4)nn3)CC2)CC1, the RP-LC retention time was 628 s. Work on Cc1ccc(CNC(=O)C2(C)CCCN(C(=O)c3cccc(Br)c3)C2)cc1 (stereo not drawn) yielded an RP-LC retention time of 960 s. With O=C(Cn1ncc2c(c1=O)N(C1CC1)C(=O)CS2)N1CCCc2ccccc21 the RP-LC retention time was 745 s. For O=C(Nc1ccc2c(c1)OCCO2)c1ccc(-n2cc(CNC(=O)C3CC3)cn2)cc1, the RP-LC retention time was 720 s. For Cc1csc(-c2ccc(CNC(=O)Cc3cccc(F)c3)cc2)n1, the RP-LC retention time was 848 s. In the case of COc1cccc(C2Cn3nnc(-c4nc(-c5ccccc5OC)no4)c3CO2)c1 (stereo not drawn), the RP-LC retention time is reported as 1010 s. CC(C)Cn1c(=O)c(N2CCN(C(=O)NCc3ccccc3)CC2)nc2ccncc21 showed an RP-LC retention time of 572 s. Work on Cc1cc(C(=O)NCC(C)C)n[nH]1 yielded an RP-LC retention time of 629 s. Molecule O=c1c2sccc2n(Cc2nc(-c3ccccc3)no2)c(=O)n1Cc1ccc(F)cc1 has an RP-LC retention time of 1040 s. COC(=O)c1ccc2c(=O)n(-c3ccc(C)c(C)c3)c(N3CCC(C)CC3)nc2c1 gave an RP-LC retention time of 1440 s. Molecule O=C(Nc1cccc(N2CCCCC2=O)c1)OCc1ccccc1 has an RP-LC retention time of 724 s. With CCCn1cc(C(=O)NCc2ccncc2)c2cccnc21 the RP-LC retention time was 572 s. Cc1nc2cc(-c3noc(CNC(=O)Cc4ccccc4)n3)ccc2o1 showed an RP-LC retention time of 780 s. Work on CCOc1ccc(-n2ccn3cc(-c4cc(OC)ccc4OC)nc3c2=O)cc1 yielded an RP-LC retention time of 895 s. In the case of O=c1c(NCCC2=CCCCC2)nc2ccncc2n1Cc1ccccc1, the RP-LC retention time is reported as 818 s. Work on CCCN(C)C[C@@H]1CC(F)(F)CN1C1CCN(S(=O)(=O)c2ccccc2F)CC1 yielded an RP-LC retention time of 712 s. With Cc1nc2cc(-c3noc(CNC(=O)c4ccccc4)n3)ccc2n(C)c1=O the RP-LC retention time was 718 s. Work on COc1cccc(-c2noc(Cc3nnc(-c4ccc(Cl)cc4)o3)n2)c1OC yielded an RP-LC retention time of 973 s. Work on O=C(C1CCCO1)N1CCN(c2ccc(-n3cccn3)nn2)CC1 (stereo not drawn) yielded an RP-LC retention time of 586 s. Cn1c(N2CCN(C(=O)c3ccccc3Br)CC2)cc(=O)n(C)c1=O gave an RP-LC retention time of 668 s. For CCn1cc(S(=O)(=O)N2C[C@@H](C(=O)NC)[C@H](c3n[nH]c(C)n3)C2)cn1, the RP-LC retention time was 577 s. Work on CCn1ncc(NC(=O)COc2ccccc2C)c(N2CCCCC2)c1=O yielded an RP-LC retention time of 1150 s. CSc1nc2ccc3nc(NC(=O)c4cnccn4)sc3c2s1 gave an RP-LC retention time of 927 s. Cc1cccc(CN2C(=O)CN(S(=O)(=O)c3ccccc3)CC2(C)C(=O)NCCC(C)C)c1 (stereo not drawn) gave an RP-LC retention time of 1030 s. CCN(CC)CCCNC(=O)c1nnc(-c2ccc(S(=O)(=O)N3CCC(C)CC3)cc2)o1 showed an RP-LC retention time of 696 s. For CCCN1C(=O)Cc2cc(C(=O)NCc3ccc(SC)cc3)ccc21, the RP-LC retention time was 829 s. For CCOc1ccc(C2Cn3nnc(-c4nc(-c5ccncc5)no4)c3CO2)cc1 (stereo not drawn), the RP-LC retention time was 958 s. In the case of O=S(=O)(c1ccc(-c2nnc(C3CCC3)o2)o1)N1CCOCC1, the RP-LC retention time is reported as 780 s. With CC(C)CCN1CCC(N(C(=O)NCCc2ccccc2)C2CCOCC2)CC1 the RP-LC retention time was 700 s. For CCOC(=O)N1CCN(c2ncc(C(=O)Nc3ccc(OCC)cc3)c(N)n2)CC1, the RP-LC retention time was 718 s. Molecule CNC(=O)c1nc(N2CCSCC2)c2cnn(C)c2n1 has an RP-LC retention time of 632 s. For O=C(Cn1c(=O)c2cccn2c2ccccc21)Nc1cccc(C(F)(F)F)c1, the RP-LC retention time was 880 s. Molecule CN(C)c1cccc(F)c1C(=O)NC(=O)Nc1ccc(Cl)cc1 has an RP-LC retention time of 990 s. In the case of CCn1c(C(=O)NCCCc2ccccc2)cc2sccc21, the RP-LC retention time is reported as 1050 s. O=C1C2N=NN(Cc3nc(-c4ccccc4Cl)no3)C2C(=O)N1c1ccc2c(c1)CCC2 (stereo not drawn) showed an RP-LC retention time of 1070 s. O=C(NCc1ccccc1)C1CCN(S(=O)(=O)c2cc(-c3noc(C4CC4)n3)cs2)CC1 gave an RP-LC retention time of 935 s. With CCOC(=O)c1c(C)oc2ncnc(N3CCc4cc(OC)c(OC)cc4C3C)c12 (stereo not drawn) the RP-LC retention time was 981 s. With O=C(Cc1cccs1)NC(Cc1ccccc1)c1nnc(N2CCCCC2)o1 (stereo not drawn) the RP-LC retention time was 843 s. With Cc1ccc(C2Cn3cnc(C(=O)N4CCC(C(=O)NCc5ccco5)CC4)c3CO2)cc1 (stereo not drawn) the RP-LC retention time was 729 s. For O=C(Nc1ccc2c(c1)OCCO2)C1CC(=O)N(CCc2c[nH]c3ccc(Cl)cc23)C1 (stereo not drawn), the RP-LC retention time was 827 s. In the case of Cc1ccc(Cl)cc1NS(=O)(=O)c1cc(-c2nc(C(C)(C)C)cs2)cs1, the RP-LC retention time is reported as 1330 s. For Cc1ccc(-n2nc(N3CCCC(C(=O)NCCCc4ccccc4)C3)ccc2=O)cc1Cl (stereo not drawn), the RP-LC retention time was 1010 s. O=C(NCc1ccncc1)C1CN(S(=O)(=O)c2ccccc2)CC12CCCCC2 (stereo not drawn) gave an RP-LC retention time of 594 s. Molecule CC(C)CC(=O)Nc1ccc(-n2cnc(C(=O)N3CCC(C)CC3)c2)nc1 has an RP-LC retention time of 774 s. In the case of Cc1cccc(S(=O)(=O)N2Cc3ccccc3CC2C(=O)NCc2ccco2)c1 (stereo not drawn), the RP-LC retention time is reported as 1000 s. With Cc1ccc(NC(=O)C2Oc3ccccc3NC2=O)c(Br)c1 (stereo not drawn) the RP-LC retention time was 852 s. In the case of COc1ccc(S(=O)(=O)NC2CCN(C(=O)Cc3c[nH]c4ccccc34)CC2)cc1, the RP-LC retention time is reported as 766 s. With CCn1ccc2sc(C)c(C(=O)NCCOC)c2c1=O the RP-LC retention time was 610 s. Work on CCNC(=O)N1CC(C(=O)N(C)C)C2(CCOCC2)C1 (stereo not drawn) yielded an RP-LC retention time of 520 s. For COc1cccc(CNC(=O)[C@@H]2[C@H](c3cc(OC)c(OC)c(OC)c3)c3cc4c(cc3[C@H](O)[C@H]2CO)OCO4)c1OC, the RP-LC retention time was 702 s. Molecule COc1ccc(Cl)c2c(=O)c3c([nH]c12)CCN(CC(=O)Nc1cccc(C)c1)C3 has an RP-LC retention time of 627 s. With COCCn1cc(CCNC(=O)Nc2ccc(F)c(Cl)c2)c2cccnc21 the RP-LC retention time was 783 s. In the case of Cc1cccc(NC(=O)C2CCN(S(=O)(=O)c3c(C)[nH]c(C)c3C(=O)N3CCCCC3)CC2)n1, the RP-LC retention time is reported as 642 s. Molecule O=C(c1ccc(Br)o1)N1CCN(c2cc(-c3ccccc3)[nH]n2)CC1 has an RP-LC retention time of 796 s. Work on N#Cc1cccc(NC(=O)C(=O)c2ccc[nH]2)c1 yielded an RP-LC retention time of 788 s. CCN1C(=O)COc2ccc(-c3noc(-c4ccc(Br)cc4)n3)cc21 showed an RP-LC retention time of 1240 s. Molecule CCOC(=O)c1ccc(Nc2c(-c3cccc(O)c3)nc3cnccn23)cc1 has an RP-LC retention time of 717 s. Work on O=C(c1ccccc1F)N1CCC2(CC1)N=C(c1ccc(Cl)cc1)NO2 yielded an RP-LC retention time of 876 s. Molecule COC(=O)c1c(C)[nH]c(C(=O)N2CCC(CC(=O)NCc3ccccc3)CC2)c1C has an RP-LC retention time of 716 s.
